The values below come from publication PMC4317013 (The Journal of Biological Chemistry, 2014).

One data set concerns Jurkat T cells. Nature of the data set: Internalization of FITC-labeled peptides by Jurkat T cells, FACS. The note with it: 5 μM, 1 h, 37 °C, full medium with 10% FBS, washed, fixed with 4% paraformaldehyde, FACSCalibur, compared with untreated cells, Fig. 5A. The method, then: For the internalization experiment, cells were seeded at 1 × 10^6 cells/ml with 8 ml of full medium into 75-cm^2 flasks and treated with respective 200 nM proteins for 2 h or 5 μM peptides for 1 h.
Human A+-helix peptide ([…]; corresponding to the cleaved N-terminal peptide of hPCI), mouse A+-helix peptide ([…]; corresponding to the cleaved N-terminal peptide of mPCI), and TAT peptide ([…]) ([42]) were synthesized and labeled with FITC (GenScript, Piscataway, NJ). […] Fluorescence-activated cell sorting (FACS) analysis was performed with a FACSCalibur flow cytometer (BD Biosciences). Further data analysis was done with Flowing Software ([43]). For confocal microscopy, the fixed cells were suspended with Vectashield mounting medium containing […] DAPI (Vector Laboratories, Burlingame, CA) and transferred onto slides. Confocal images were taken by a Zeiss LSM-510 Meta confocal microscope system (Zeiss, Jena, Germany). Zeiss LSM Image Browser software was applied for further analysis of images.

The subject of the next data set is urokinase. Nature of the data set: 30 nM urokinase. The note with it: 37 °C, up to 120 min.
A further data set has as its system testisin. Nature of the data set: 30 nM testisin in testisin buffer (50 mM Tris, 150 mM NaCl, 10 mM CaCl2, pH 7.5). To be noted: 37 °C, up to 120 min.
Data set [1] can be described thus: media from untreated U937 cells (RMPI 1640 medium). The note with it: 37 °C, up to 4 h.
In a further data set the test system is enteropeptidase. Nature of the data set: 30 nM enteropeptidase. The note with it: 37 °C, up to 120 min.

Take Fluorescein Isothiocyanate [free FITC]: in the data set with Jurkat T cells, the “cellular fluorescence signal (FACS)” value is reported as “small shift”.

RRHSHSKKKKAKESSVGAVGPPSSKDFA...: the not cleaved entry with urokinase was “still recognized by anti-penta-His IgG after 2-h incubation”; in data set [1], “did not affect the molecular weight of mPCI upon incubation for 1 and 4 h”; in the data set with enteropeptidase, “still recognized by anti-penta-His IgG after 2-h incubation”. The cleaved bond result with testisin was “Ala18-Val19”.
